Experimental data taken from patent US9932349B2 (priority 2000, dated 2018).
Where “and” joins values, the source holds several entries; their conditions need not be identical. Equal values may be shown once. Read-outs that look alike come from different tables or passages of the source.

Experiments:
[1] = target: T1, δ opioid receptor (Cavia porcellus, UniProt A0A286XTF2); experiment: biochemical; format: binding, guinea pig
T1 construct: determined in guinea pig brain cells; from tissue; host or cells: guinea pig brain
T1 sequence (A0A286XTF2 1-366): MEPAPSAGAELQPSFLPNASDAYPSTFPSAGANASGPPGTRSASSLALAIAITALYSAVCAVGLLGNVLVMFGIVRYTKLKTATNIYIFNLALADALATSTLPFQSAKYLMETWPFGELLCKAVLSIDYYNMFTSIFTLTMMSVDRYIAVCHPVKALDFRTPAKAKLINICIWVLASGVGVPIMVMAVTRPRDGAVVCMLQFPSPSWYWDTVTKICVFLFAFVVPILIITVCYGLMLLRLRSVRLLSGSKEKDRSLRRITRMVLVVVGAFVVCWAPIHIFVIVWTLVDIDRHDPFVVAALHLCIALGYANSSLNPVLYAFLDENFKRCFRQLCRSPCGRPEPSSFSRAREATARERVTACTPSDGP

[2] = target: T2, κ opioid receptor (Cavia porcellus, UniProt P41144); experiment: biochemical; format: binding, guinea pig
T2 construct: determined in guinea pig brain cells; from tissue; host or cells: guinea pig brain
T2 sequence (P41144 whole entry): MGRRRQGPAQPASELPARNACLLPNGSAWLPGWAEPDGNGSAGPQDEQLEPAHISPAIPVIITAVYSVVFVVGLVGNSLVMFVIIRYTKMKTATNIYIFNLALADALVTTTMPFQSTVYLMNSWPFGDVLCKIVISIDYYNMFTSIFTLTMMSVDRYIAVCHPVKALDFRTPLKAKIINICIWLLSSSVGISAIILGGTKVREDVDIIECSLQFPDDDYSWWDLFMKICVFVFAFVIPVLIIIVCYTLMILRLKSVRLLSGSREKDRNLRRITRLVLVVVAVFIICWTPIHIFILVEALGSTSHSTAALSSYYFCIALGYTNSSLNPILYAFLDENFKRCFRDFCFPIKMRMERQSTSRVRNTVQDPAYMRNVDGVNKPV

[3] = target: μ opioid receptor (Cavia porcellus, UniProt A0ACM8Q262); format: binding, guinea pig; details: read-out: [3H] DAMGO (μ)
Chain of μ opioid receptor (A0ACM8Q262 1-400): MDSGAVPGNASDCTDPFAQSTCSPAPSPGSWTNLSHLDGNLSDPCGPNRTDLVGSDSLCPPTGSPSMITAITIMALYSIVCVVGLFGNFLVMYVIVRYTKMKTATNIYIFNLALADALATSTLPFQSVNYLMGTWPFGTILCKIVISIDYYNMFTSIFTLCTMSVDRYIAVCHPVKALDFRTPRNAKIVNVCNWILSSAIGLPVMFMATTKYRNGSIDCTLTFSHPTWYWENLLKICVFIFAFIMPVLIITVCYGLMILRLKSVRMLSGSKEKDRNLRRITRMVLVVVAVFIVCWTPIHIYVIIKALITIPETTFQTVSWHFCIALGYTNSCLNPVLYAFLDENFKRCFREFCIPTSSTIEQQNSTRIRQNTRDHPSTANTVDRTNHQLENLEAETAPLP

[4] = target: T3, human δ opioid receptor (Homo sapiens, UniProt P41143); experiment: binding to cloned human receptor in CHO cell membranes, [3H]Naltrindole
T3 construct: expressed in transfected cells; host or cells: Chinese hamster ovary (CHO) cells
T3 sequence (P41143 whole entry): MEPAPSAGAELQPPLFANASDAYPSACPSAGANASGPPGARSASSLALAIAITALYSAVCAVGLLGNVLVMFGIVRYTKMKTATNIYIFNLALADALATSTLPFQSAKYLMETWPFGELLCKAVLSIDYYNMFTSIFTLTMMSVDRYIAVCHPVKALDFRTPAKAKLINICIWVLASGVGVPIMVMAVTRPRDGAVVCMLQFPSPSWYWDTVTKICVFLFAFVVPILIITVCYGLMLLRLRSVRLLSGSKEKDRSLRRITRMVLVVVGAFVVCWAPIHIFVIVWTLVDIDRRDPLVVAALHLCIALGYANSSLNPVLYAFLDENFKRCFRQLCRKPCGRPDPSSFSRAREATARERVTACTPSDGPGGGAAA
Procedure: The affinities of the compounds of the invention were determined in guinea pig brain cells by the method described in Wentland et al. Biorgan. Med. Chem. Lett. 9. […] CHO cell membranes, expressing the human μ, δ, or κ opioid receptor, were incubated with 12 different concentrations of the compounds in the presence of receptor-specific radioligands at 25° C., in a final volume of 1 ml of 50 mM Tris-HCl, pH 7.5. Nonspecific binding was determined using 1 μM naloxone. Data are the mean value ±S.E.M. from three experiments, performed in triplicate.

[5] = target: T4, human μ opioid receptor (Homo sapiens, UniProt P35372); experiment: biochemical; format: binding
T4 construct: expressed in transfected cells; host or cells: Chinese hamster ovary (CHO) cells
T4 sequence (P35372 whole entry): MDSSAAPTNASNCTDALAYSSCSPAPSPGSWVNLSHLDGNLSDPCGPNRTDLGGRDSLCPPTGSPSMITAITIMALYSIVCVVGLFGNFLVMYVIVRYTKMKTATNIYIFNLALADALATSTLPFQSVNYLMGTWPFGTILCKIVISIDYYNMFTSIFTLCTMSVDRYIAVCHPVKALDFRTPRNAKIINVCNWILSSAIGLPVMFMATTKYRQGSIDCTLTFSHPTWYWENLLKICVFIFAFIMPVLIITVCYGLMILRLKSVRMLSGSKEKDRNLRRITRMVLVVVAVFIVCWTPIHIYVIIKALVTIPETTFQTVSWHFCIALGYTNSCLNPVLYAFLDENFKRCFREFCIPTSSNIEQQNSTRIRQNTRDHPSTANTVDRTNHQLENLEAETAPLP

[6] = target: T5, human κ opioid receptor (Homo sapiens, UniProt P41145); experiment: biochemical; format: binding
T5 construct: expressed in transfected cells; host or cells: Chinese hamster ovary (CHO) cells
T5 sequence (P41145 whole entry): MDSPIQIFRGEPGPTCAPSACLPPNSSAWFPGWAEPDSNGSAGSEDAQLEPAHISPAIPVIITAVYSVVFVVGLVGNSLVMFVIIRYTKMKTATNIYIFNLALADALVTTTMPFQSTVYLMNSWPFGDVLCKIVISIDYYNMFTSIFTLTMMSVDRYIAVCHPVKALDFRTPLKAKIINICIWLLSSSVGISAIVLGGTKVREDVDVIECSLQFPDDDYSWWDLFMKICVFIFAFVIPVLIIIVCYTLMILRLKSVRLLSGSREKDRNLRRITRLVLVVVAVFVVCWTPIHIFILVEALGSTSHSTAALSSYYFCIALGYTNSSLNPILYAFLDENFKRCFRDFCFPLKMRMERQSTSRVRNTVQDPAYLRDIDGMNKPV

[7] = tested on: mice; experiment: mouse acetic acid writhing test (antinociceptive activity); format: in vivo

C[C@H]1[C@H]2C(=O)c3ccc(C(N)=O)cc3[C@]1(C)CCN2CC1CC1 (relative stereo) [Example 23]
Ki ([1]; [3H] Naltrindole (δ)): 20 ± 2.3 nM | Ki ([2]; [3H] U69,593 (κ)): 1.8 ± 0.1 nM

C[C@H]1C2Cc3ccc(C(N)=S)cc3[C@@]1(C)CCN2CC1CC1 (racemic) [Example 5, (±)-3-(Cyclopropylmethyl)-1,2,3,4,5,6-hexahydro-cis-6,11-dimethyl-2,6-methano-3-benzazocin-8-thiocarboxamide]
Ki ([1]; Ki [3H] Naltrindole (δ)): 4 ± 0.48 nM | Ki ([2]; Ki [3H] U69,593 (κ)): 0.67 ± 0.01 nM

C[C@H]1C2Cc3ccc(C#N)cc3[C@@]1(C)CCN2CC1CC1 (racemic) [Example 1, (±)-3-(Cyclopropylmethyl)-1,2,3,4,5,6-hexahydro-cis-6,11-dimethyl-2,6-methano-3-benzazocin-8-carbonitrile]
Ki ([1]; Ki [3H] Naltrindole (δ)): 2700 ± 1400 nM | Ki ([2]; Ki [3H] U69,593 (κ)): 71 ± 13 nM

NC(=O)c1ccc2c3c1OC1C(=O)CCC4(O)C(C2)N(CC2CC2)CCC314 (stereo not shown) [Example 32]
Ki [3]: 1.9 ± 0.21 nM | Ki ([1]; read-out: [3H] Naltrindole (δ)): 110 ± 8.1 nM | Ki ([2]; read-out: [3H] U69,593 (κ)): 22 ± 0.85 nM

CC1C2C(=O)c3ccc(C#N)cc3C1(C)CCN2CC1CC1 (stereo not shown) [Example 22]
Ki ([1]; [3H] Naltrindole (δ)): 3400 ± 410 nM | Ki ([2]; [3H] U69,593 (κ)): 59 ± 0.77 nM

CC1C2Cc3ccc(NC=O)cc3C1(C)CCN2CC1CC1 (single isomer, unassigned) [Example 19a]
Ki ([1]; Ki [3H] Naltrindole (δ)): 9.8 ± 0.28 nM | Ki ([2]; Ki [3H] U69,593 (κ)): 0.49 ± 0.012 nM

CC1C2Cc3ccc(NC(N)=S)cc3C1(C)CCN2CC1CC1 (racemic) [Example 37]
Ki ([4]; read-out: Ki [3H] Naltrindole (δ), Table 1, footnote a: chinese hamster ovary rather than guinea pig brain): 440 ± 72 nM | Ki ([5]; read-out: Ki [3H] DAMGO (μ)): 10 ± 1.7 nM | Ki ([6]; read-out: Ki [3H] U69,593 (κ)): 4 ± 0.54 nM

CC1C2Cc3ccc(C(=NO)c4ccccc4)cc3C1(C)CCN2CC1CC1 (stereo not shown) [Example 18]
Ki ([1]; Ki [3H] Naltrindole (δ)): 180 ± 15 nM | Ki ([2]; Ki [3H] U69,593 (κ)): 7.2 ± 0.4 nM

Oc1ccc2c3c1O[C@H]1c4[nH]c5ccccc5c4C[C@@]4(O)[C@@H](C2)N(CC2CC2)CC[C@]314 [naltrindole (3-OH), Naltrindole, reference compound]
Ki ([2]; [3H] U69,593 (κ)): 4.6 ± 0.23 nM

CC1C2Cc3ccc(C(N)=O)cc3C1(C)CCN2CC1CCCO1 (single isomer, unassigned) [Example 26]
Ki ([1]; [3H] Naltrindole (δ)): 2 ± 0.15 nM | Ki ([2]; [3H] U69,593 (κ)): 0.089 ± 0.004 nM

COc1ccc(CNC(=O)c2ccc3c(c2)[C@]2(C)CCN(CC4CC4)[C@H](C3)[C@@H]2C)cc1 (racemic) [Example 10]
Ki ([1]; Ki [3H] Naltrindole (δ)): 150 ± 17 nM | Ki ([2]; Ki [3H] U69,593 (κ)): 110 ± 3.1 nM

CC1C2Cc3ccc(C4=NCCN4)cc3C1(C)CCN2CC1CC1 (stereo not shown) [Example 13]
Ki ([1]; Ki [3H] Naltrindole (δ)): 55 ± 5.1 nM | Ki ([2]; Ki [3H] U69,593 (κ)): 11 ± 0.69 nM

N#Cc1ccc2c(c1O)[C@]13CCN(CC4CCC4)[C@H](C2)[C@]1(O)CCC(=O)C3 [Example 43]
Ki [4]: 82 ± 24 nM | Ki [5]: 0.35 ± 0.092 nM | Ki [6]: 2.6 ± 0.21 nM

C[C@H]1[C@H]2Cc3ccc(O)cc3[C@]1(C)CCN2CC1CC1 [(−)-Cyclazocine, Cyclazocine, reference compound]
Ki ([1]; read-out: [3H] Naltrindole (δ)): 0.58 ± 0.06 nM | Ki ([2]; read-out: [3H]U69,593 (κ)): 0.052 ± 0.009 nM

C[C@H]1C2Cc3ccc(C(N)=O)cc3[C@@]1(C)CCN2CC1CC1 (racemic) [Example 4, (±)-3-(Cyclopropylmethyl)-1,2,3,4,5,6-hexahydro-cis-6,11-dimethyl-2,6-methano-3-benzazocin-8-carboxamide]
duration of action (antinociception, mouse writhing test) ([7]; 1.0 mg/kg i.p.): 15 h | ED50 in the mouse acetic acid writhing test ([7]; administered i.c.v.): 0.21 nmol | Ki ([1]; Ki [3H] Naltrindole (δ)): 8.3 nM and 4.9 nM

CC1C2Cc3ccc(C(N)=O)cc3C1(C)CCN2CC1CC1 (single isomer, unassigned) [Example 4a]
Ki ([1]; Ki [3H] Naltrindole (δ)): 2.6 ± 0.6 nM

CC1C2Cc3ccc(NC=O)cc3C1(C)CCN2CC1CC1 (single isomer, unassigned) [Example 19b]
Ki ([1]; Ki [3H] Naltrindole (δ)): > 10000 nM | Ki ([2]; Ki [3H] U69,593 (κ)): 900 ± 8.7 nM

CC1C2Cc3ccc(C(=O)c4ccccc4)cc3C1(C)CCN2CC1CC1 (stereo not shown) [Example 17]
Ki ([1]; Ki [3H] Naltrindole (δ)): 490 ± 43 nM | Ki ([2]; Ki [3H] U69,593 (κ)): 19 ± 2.6 nM

CC[C@@]12CCN(CC3CC3)C(C(=O)c3ccc(O)cc31)C2C (mixture of isomers) [(±)-EKC, Ethylketocyclazocine, reference compound]
Ki ([1]; [3H] Naltrindole (δ)): 3.4 ± 0.41 nM

C[C@H]1[C@H]2Cc3ccc(C(=O)NO)cc3[C@]1(C)CCN2CC1CC1 (racemic) [Example 6]
Ki ([1]; Ki [3H] Naltrindole (δ)): 210 ± 40 nM | Ki ([2]; Ki [3H] U69,593 (κ)): 6.9 ± 0.61 nM

CC1C2Cc3ccc(C(=O)NN)cc3C1(C)CCN2CC1CC1 (stereo not shown) [Example 7]
Ki ([2]; Ki [3H] U69,593 (κ)): 19 ± 1.4 nM

Oc1ccc2c(c1)C13CCCCC1(O)C(C2)N(CC1CCC1)CC3 (stereo not shown) [butorphanol, Butorphanol, reference compound]
Ki [4]: 12 ± 3.8 nM | Ki [6]: 0.22 ± 0.023 nM

CC1C2Cc3ccc(NC=O)cc3C1(C)CCN2CC1CC1 (mixture of isomers) [Example 19, (±)-N-[3-(Cyclopropylmethyl)-1,2,3,4,5,6,-hexahydro-cis-6,11-dimethyl-2,6-methano-3-benzazocin-8-yl]-formamide]
Ki ([1]; read-out: Ki [3H] Naltrindole (δ)): 37 ± 3.9 nM | Ki ([2]; read-out: Ki [3H] U69,593 (κ)): 0.85 ± 0.08 nM
